Test results taken from US20250382588A1, “CHIMERIC AAV AND USES THEREOF” (priority 2023, published 2025).
Entries after “also recorded” stand apart in the source; their conditions may differ.

Key:
[1] = test system: parkinsonian macaque model (MPP+); conditions: clinical; cited from earlier work
[2] = test system: parkinsonian macaque model (MPP+); assay: Parkinsonian symptoms in MPP+ macaques (PD score, locomotion, EMG tremor, motor skill, dyskinesia score)
Experimental: Parkinsonian conditions in macaque monkeys were established by unilaterally injecting 1-Methyl-4-phenylpyridinium (MPP+) into the SNc (FIG. 14). […] Drug injections were performed in five sites covering the whole SNc. A total volume of 10 ul MPP+ was injected into SNc at a speed of 50 nL/min. Monkeys were continuously monitored by veterinarians after lesion.
Two experienced observers blindly evaluated parkinsonian symptoms of the monkeys three days per week throughout the observation periods. Parkinsonian symptoms were quantified according to the well-established Kurlan scale (Part I. Parkinsonian features), a widely used scale to quantify PD symptoms in old world monkeys. A score of zero indicates a normal monkey, whereas a maximum score of 29 indicates an animal with severe PD symptoms. For separate behavioral categories, scoring of the upper limb and the lower limb were added together. Additionally, action or intention tremors and resting tremors were added together.
Two experienced observers blindly evaluated dyskinesia symptoms of the monkeys three days per week throughout the observation periods. Dyskinesia score criteria were: 0: Absent. 1: Mild, fleeting, present <30% of the observation period. 2: Moderate, not interfering with normal activity, present >30% of the observation period. 3: Marked, at times interfering with normal activity; present <70% of the observation period.4: Severe, continuous, replacing normal activity, present >70% of the observation.
For parkinsonian monkeys, DCZ (Deschloroclozapine, 0.3 mg/kg, MCE) was administered via intramuscular injection. After DCZ was successfully infused, monkeys were immediately transferred to the observation cage for video recording. […] For long-term DCZ treatment, parkinsonian monkeys were given DCZ at a dose of 0.3 mg/kg every other day via intramuscular injection. […] One month of washout was allowed before administration of DCZ for a 2 months treatment.
A grasp-to-eat/hand-to-mouth movement test was conducted as an indication of motor skills in monkeys. Monkeys were first trained to sit in a primate chair with the healthy hand restricted. Monkeys were then trained to grasp food (a piece of apple, ˜1 cm3) using the MPP+-affected hand from the experimenter. The task contained three blocks, with 20-minute intervals between different blocks. Each block included ten continuous trials. Trials were defined as successful when monkeys were able to bring food to their mouth within a minute.
During video recording, a top (x/y) and a side (x/z) camera were used to record the observation cage. The VigiePrimate system (Viewpoint) was used to analyze the subject's activity and extract movement data from the recorded videos. The tracking data were synchronously sampled at 25 Hz for both top view and side view, and then combined to generate one dataset representing the 3D space. The tracking data were normalized to 0-100 cm for all x-, y-, and z-axes, of which x represents right to left, y represents front to back, and z represents bottom to top.
Customized surface EMG electrodes were used for EMG recordings.

For `N[C@@H](Cc1ccc(O)c(O)c1)C(=O)O` [L-Dopa, levodopa], the standard efficacy window [1] is listed as 6 h, the “dyskinesia-like behaviors (dyskinesia score)” value ([2]; long-term treatment) is listed as “evident; also recorded: pronounced” and the “effect of 4 months prior L-Dopa administration on DCZ treatment” value ([2]; one month washout) is listed as “did not affect the efficacy of DCZ treatment or the absence of dyskinesia”.
